From US20060099235A1, “Medical devices and compositions useful for treating or inhibiting restenosis” (Medtronic Vascular, Inc., priority 2004, published 2006)

Assays:
[1] = tested on: human coronary artery smooth muscle cells (hCASMCs); assay: CellTiter-Glo Luminescent Cell Viability (proliferation) assay, 3-day exposure; format: cell-based
Experimental: (§1) Leptomycin B's anti-proliferative efficacy was tested at different concentrations (0.01 nM, 0.1 nM, 1.0 nM, 10.0 nM, 100 nM and 1000 nM) using a three day exposure to hCASMC. The same experiment was performed twice at two separate times to ascertain leptomycin's effect on cell proliferation using a cell viability assay, and the cell phenotype through a qualitative observation of cell morphology following the 3-day exposure to leptomycin B.
The CellTiter-Glo® Luminescent Cell Viability Assay (Promega Corporation, Madison, Wis.) is a method of determining the number of viable cells in culture based on the quantitation of ATP, as an indicator of metabolically active cells (proliferating). A single reagent is added to cells directly in culture, this reagent lyses the cells and provides the luciferase enzyme that reacts with the liberated ATP to create a luminescent signal.
Twenty-four well plates were seeded with hCASMC at 5×10^3 cells per well (n=3) using methods know to those skilled in the art of cell culture. For example and not intended as a limitation: Materials • 1. Human coronary smooth muscles cells (HCASMC) are obtained from Clonetics, a division of Cambrex, Inc. • 2. HCASMC basal media, supplied by Clonetics and supplemented with fetal bovine serum, insulin, hFGF-B (human fibroblast growth factor) hEGF (human epidermal growth factor). • 3. Leptomycin B was purchased from LC Laboratories. Wobum, Mass., USA catalogue number L-6100 • 4. Absolute methanol • 5. Twenty-four well polystyrene tissue culture plates
Dilutions of the drug were made in serum-free cell culture media from the stock solution. A volume of 100 μL of each dilution was added to designated wells. […]
The CellTiter-Glo® Luminescent Cell Viability Assay (Promega Corporation, Madison, Wis.) was performed to assess percent viability. The CellTiter-Glo® Luminescent Cell Viability Assay is a homogeneous method of determining the number of viable cells in culture based on quantitation of the ATP present, which signals the presence of metabolically active cells. […]

[2] = tested on: human coronary artery smooth muscle cells (hCASMCs); assay: Microscopic evaluation of cell morphology after 3-day exposure; format: cell-based; conditions: hCASMC, 3 days
Experimental: as §1
The evaluation of cell phenotype on drug-treated wells was performed by optical microscopy observation and capture of representative images at 200× (total magnification). Microscopic evaluation and pictures were performed before the proliferation assay was done on the 24-well drug-treated plate.
Representative microphotographs (See FIGS. 8-14) of cells exposed to different concentrations of leptomycin B for a period of three days. HCASMCs cultured in the absence of the drug (FIG. 8) reached a ˜90% confluency with the expected healthy phenotype at three days (duration of the assay), providing an adequate control.

CCC(=C/[C@H](C)C/C=C/C(C)=C/[C@@H](C)C(=O)[C@@H](C)[C@H](O)[C@@H](C)C/C(C)=C/C(=O)O)/C=C/[C@@H]1OC(=O)C=C[C@@H]1C [leptomycin B, 2,10,12,16,18-nonadecapentaenoic acid]
effect on human coronary artery smooth muscle cell proliferation ([1]; 0.01-1000 nM, two trials (FIGS. 6 and 7)): inhibitory effect
concentration showing inhibitory effect on hCASMC proliferation in vitro ([1]; concentrations as low as): ≥ 1 nM
nature of the effect (cytostatic vs cytotoxic) ([1]; hCASMC): predominantly cytostatic rather than cytotoxic
microscopic signs of cytotoxicity ([2]; 0.01-1000 nM): No microscopic signs of cytotoxicity
level of confluence ([2]; 200x optical microscopy, control ~90% confluency): decreased level of confluence
